According to patent publication US20240269298A1, “PHOSPHONYL DERIVATIVE, AND COMPOSITION AND PHARMACEUTICAL APPLICATION THEREOF” (XIZANG HAISCO PHARMACEUTICAL CO., LTD., priority 2021, published 2024):
Like-named read-outs stand apart in the source and are kept apart here.

Experiments:
[1] = test system: NCI-H1975 EGFR-L858R-T790M-C797S cells; test: Inhibitory activity on proliferation of NCI-H1975 EGFR-L858R-T790M-C797S cells (CellTiter-Glo, 72 h); type: cell-based; settings: Homo sapiens
Protocol: NCI-H1975 EGFR-L858R-T790M-C797S cells were cultured in an incubator at 37° C. with 5% CO2, and the culture medium was RPMI1640+10% FBS+100 μg/mL hygromycin. The cells in the logarithmic phase were collected, and the cell suspension was adjusted to an appropriate concentration with a hygromycin-free culture medium, and then plated on a 96-well plate at a density of 1500 cells/well and a volume of 90 μL. 10 μL of the compounds at different concentrations were added, and a vehicle control group (cells plus DMSO) was provided, wherein the concentration of DMSO was 0.1%. The cell culture plate was cultured in an incubator at 37° C. with 5% CO2 for 72 hours. After the incubation was completed, according to operation instructions for a CellTiter-Glo kit (Promega, G7572), 50 μL of CTG solution, which was already pre-melted and equilibrated to room temperature, was added to each well, and the mixtures were uniformly mixed for 2 min using a microplate shaker. The plate was placed at room temperature for 10 min, and then […] signal values were measured using a microplate reader (Envision 2104). […] was processed based on formula (2), and using the GraphPad Prism 5.0 software and nonlinear regression model, S-shaped dose-survival curves were plotted, and IC50 values were calculated. wherein Vsample was the readout of the drug-treated group, and Vvehicle control was the readout of the control group.

[2] = Pharmacokinetic test in mice; type: in vivo; settings: male, ICR, mouse, po, administration i.g. (10 mg/kg), plasma
Procedure, shortened: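 Male ICR mice (20-25 g), fasted 12-14 h before dosing and fed 4 h after, received a single intravenous or intragastric dose. Orbital plasma sampled from 0 to 24 h (5 min-24 h points); LC-MS/MS quantitation for PK parameters and bioavailability.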

[3] = target: T1, EGFR protein in NCI-H1975 EGFR-L858R-T790M-C797S cells (Homo sapiens, UniProt P00533, C797S/L858R/T790M); test: Degradation activity on EGFR protein in NCI-H1975 EGFR-L858R-T790M-C797S cells, Method I (western blot, 72 h); type: cell-based; settings: 72 h incubation, EGFR protein relative to DMSO control
T1 construct: expressed in transfected cells; host or cells: NCI-H1975 EGFR-L858R-T790M-C797S (kept under hygromycin selection)
Protocol: Protein sample preparation: NCI-H1975 EGFR-L858R-T790M-C797S cells were cultured in an incubator at 37° C. with 5% CO2, and the culture medium was RPMI1640+10% FBS+100 μg/mL hygromycin. The cells in the logarithmic phase were collected, and the cell suspension was adjusted to an appropriate concentration with a hygromycin-free culture medium, plated on a 6-well plate at a density of 200000 cells/well and a volume of 2 mL, and cultured overnight in an incubator at 37° C. with 5% CO2. The next day, the compounds at different concentrations were added. DMSO control wells were provided, wherein the concentration of DMSO in all wells was 0.1%. The 6-well plate was cultured in an incubator at 37° C. with 5% CO2 for 72 h, and then 30 μL of RIPA lysates (Beyotime, Cat. P0013B) containing protease inhibitors (Beyotime, Cat. P0013B) were added. The mixtures were lysed on ice for 30 min. Centrifugation was carried out at 13000 rpm/min at 4° C. for 20 min to collect protein supernatant samples, and protein quantification was performed by the BCA method. Samples for western blot detection were prepared.
Western blot detection: 20 μg of protein samples were added to each well, subjected to polyacrylamide gel electrophoresis and transferred to a membrane, and then diluted anti-EGFR (CST, Cat. 4267S) and […] (Kangchen, Cat. KC-5G4) antibodies were added and incubated overnight at 4° C. After washing the membrane, diluted goat anti-rabbit (Licor, Cat. 926-32211) and goat anti-mouse (Licor, Cat. 926-68070) antibodies were added and incubated in the dark for 45 min. Scanning and detection at wavelengths of 700 nm and 800 nm were performed with a far-infrared imaging system (Odyssey).
According to formula (3), the expression level of EGFR protein in the cells relative to the DMSO control group was calculated after incubation with different concentrations of compounds. wherein EGFRcompound was the fluorescence value of EGFR protein after incubation with compounds, and EGFRvehicle was the fluorescence value of EGFR protein in the DMSO control group. Using the Origin 9.2 software, the drug concentration DC50 values when the expression level of EGFR protein was 50% relative to the DMSO control group were calculated.

[4] = test system: NCI-H1975 (EGFR-L858R-T790M) cells; test: Inhibitory activity on proliferation of NCI-H1975 (EGFR-L858R-T790M) cells (CTG, 72 h); type: cell-based; settings: Homo sapiens
Procedure, shortened: (§1)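 Cells plated at 1000/well (NCI-H1975, RPMI1640+10% FBS) or 3000/well (A431, DMEM+10% FBS), dosed next day with compounds (0.1% DMSO final) for 72 h at 37 °C, 5% CO2. Viability by CTG luminescence, normalised to vehicle control; IC50 from nonlinear-regression dose-survival curves.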

[5] = test system: A431 (EGFR-WT) cells; test: Inhibitory activity on proliferation of A431 (EGFR-WT) cells (CTG, 72 h); type: cell-based; settings: Homo sapiens, A-431
Procedure, shortened: as §1

[6] = read-out: IC50 (value in brackets)

T1 sequence (P00533 25-1210 T790M/C797S/L858R): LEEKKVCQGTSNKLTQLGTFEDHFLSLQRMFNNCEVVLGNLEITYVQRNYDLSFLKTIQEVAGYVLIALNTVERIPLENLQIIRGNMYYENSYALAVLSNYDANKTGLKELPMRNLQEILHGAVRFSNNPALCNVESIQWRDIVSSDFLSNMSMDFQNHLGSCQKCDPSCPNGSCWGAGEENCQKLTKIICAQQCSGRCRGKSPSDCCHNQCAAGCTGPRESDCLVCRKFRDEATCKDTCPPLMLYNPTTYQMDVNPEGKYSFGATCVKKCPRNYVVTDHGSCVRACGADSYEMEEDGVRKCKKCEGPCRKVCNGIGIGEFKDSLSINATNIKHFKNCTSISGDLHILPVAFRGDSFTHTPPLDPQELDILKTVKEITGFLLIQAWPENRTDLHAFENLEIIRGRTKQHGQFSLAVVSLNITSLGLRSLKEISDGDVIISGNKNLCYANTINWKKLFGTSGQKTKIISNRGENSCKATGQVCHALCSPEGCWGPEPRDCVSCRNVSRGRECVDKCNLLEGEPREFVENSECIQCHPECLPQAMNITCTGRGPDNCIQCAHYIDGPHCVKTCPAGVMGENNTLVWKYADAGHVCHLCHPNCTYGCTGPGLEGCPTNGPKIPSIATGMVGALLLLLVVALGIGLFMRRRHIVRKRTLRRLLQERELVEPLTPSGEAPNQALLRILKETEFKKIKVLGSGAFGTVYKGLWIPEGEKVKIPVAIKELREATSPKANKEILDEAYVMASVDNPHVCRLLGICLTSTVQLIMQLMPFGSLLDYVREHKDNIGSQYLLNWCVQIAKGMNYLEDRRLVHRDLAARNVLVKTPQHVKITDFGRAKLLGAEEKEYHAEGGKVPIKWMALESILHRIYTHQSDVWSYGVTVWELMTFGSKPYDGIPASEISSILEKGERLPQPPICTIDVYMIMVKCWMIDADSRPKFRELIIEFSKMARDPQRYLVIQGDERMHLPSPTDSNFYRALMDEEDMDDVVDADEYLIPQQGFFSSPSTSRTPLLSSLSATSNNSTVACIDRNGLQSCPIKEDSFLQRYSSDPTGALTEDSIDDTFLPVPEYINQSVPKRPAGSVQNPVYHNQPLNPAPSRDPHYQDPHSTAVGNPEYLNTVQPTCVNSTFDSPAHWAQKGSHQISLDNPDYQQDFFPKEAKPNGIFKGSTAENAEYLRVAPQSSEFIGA

SMILES | IC50 ([1]; read-out: IC50 (class symbol)) | IC50 ([1]; read-out: IC50 (value)) | AUC(0-t) [2] | DC50 [3] | IC50 ([4]; read-out: IC50 (class symbol)) | IC50 [4, 6] | IC50 [5] | AUC [2] | half-life [2]
COc1cc(N2CCC(N3CCN(CC4CCN(c5ccc6c(c5)C(=O)N(C5CCC(=O)NC5=O)C6=O)CC4)CC3)CC2)c(-c2cnn(C)c2)cc1Nc1ncc(Br)c(Nc2ccc(-c3ccccc3F)cc2P(C)(C)=O)n1 (stereo not drawn) [Compound 54, 5-(4-((4-(1-(4-((5-bromo-4-((3-(dimethylphosphoryl)-2′-fluoro-[1,1′-biphenyl]-4-yl)amino)pyrimidin-2-yl)amino)-5-methoxy-2-(1-methyl-1H-pyrazol-4-yl)phenyl)piperidin-4-yl)piperazin-1-yl)methyl)piperidin-1-yl)-2-(2,6-dioxopiperidin-3-yl)isoindoline-1,3-dione] | < 200 nM | 56 nM | 29800 ng·h/mL | < 100 nM | < 100 nM | 69 nM | ≥ 10000 nM |  | 
COc1cc(N2CCN(CC3CCN(c4ccc5c(c4)C(=O)N(C4CCC(=O)NC4=O)C5=O)CC3)CC2)c(-c2cnn(C)c2)cc1Nc1ncc(Br)c(Nc2ccc(-c3ccccc3)cc2P(C)(C)=O)n1 (stereo not drawn) [Compound 77, 5-(4-((4-(4-((5-bromo-4-((3-(dimethylphosphoryl)-[1,1′-biphenyl]-4-yl)amino)pyrimidin-2-yl)amino)-5-methoxy-2-(1-methyl-1H-pyrazol-4-yl)phenyl)piperazin-1-yl)methyl)piperidin-1-yl)-2-(2,6-dioxopiperidin-3-yl)isoindoline-1,3-dione] | < 200 nM | 46 nM |  | < 100 nM | < 100 nM | 32 nM | ≥ 10000 nM | 47300 ng·h/mL | 5.79 h
COc1cc(N2CCN(CC3CCN(c4ccc5c(c4)C(=O)N(C4CCC(=O)NC4=O)C5=O)CC3)CC2)c(-c2cnn(C)c2)cc1Nc1ncc(Cl)c(Nc2ccc(-c3ccccc3F)cc2P(C)(C)=O)n1 (stereo not drawn) [Compound 97, 5-(4-((4-(4-((5-chloro-4-((3-(dimethylphosphoryl)-2′-fluoro-[1,1′-biphenyl]-4-yl)amino)pyrimidin-2-yl)amino)-5-methoxy-2-(1-methyl-1H-pyrazol-4-yl)phenyl)piperazin-1-yl)methyl)piperidin-1-yl)-2-(2,6-dioxopiperidin-3-yl)isoindoline-1,3-dione] | < 200 nM | 79 nM | 42300 ng·h/mL | < 100 nM | < 100 nM | 62 nM | ≥ 10000 nM |  | 
COc1cc(N2CCC(N3CCN(c4ccc5c(c4)C(=O)N(C4CCC(=O)NC4=O)C5=O)CC3)CC2)c(-c2cnn(C)c2)cc1Nc1ncc(Br)c(Nc2ccc(-c3ccccc3)cc2P(C)(C)=O)n1 (stereo not drawn) [Compound 81, 5-(4-(1-(4-((5-bromo-4-((3-(dimethylphosphoryl)-[1,1′-biphenyl]-4-yl)amino)pyrimidin-2-yl)amino)-5-methoxy-2-(1-methyl-1H-pyrazol-4-yl)phenyl)piperidin-4-yl)piperazin-1-yl)-2-(2,6-dioxopiperidin-3-yl)isoindoline-1,3-dione] | < 200 nM | 49 nM | 51000 ng·h/mL | < 100 nM | < 100 nM | 71 nM | ≥ 10000 nM |  | 
COc1cc(N2CCN(CC3CCN(c4ccc5c(c4)C(=O)N(C4CCC(=O)NC4=O)C5=O)CC3)CC2)c(-c2cnn(C)c2)cc1Nc1ncc(Br)c(Nc2ccc(-c3ccccc3F)cc2P(C)(C)=O)n1 (stereo not drawn) [Compound 96, 5-(4-((4-(4-((5-bromo-4-((3-(dimethylphosphoryl)-2′-fluoro-[1,1′-biphenyl]-4-yl)amino)pyrimidin-2-yl)amino)-5-methoxy-2-(1-methyl-1H-pyrazol-4-yl)phenyl)piperazin-1-yl)methyl)piperidin-1-yl)-2-(2,6-dioxopiperidin-3-yl)isoindoline-1,3-dione] | < 200 nM | 60 nM | 47000 ng·h/mL | < 100 nM | < 100 nM | 36 nM | ≥ 10000 nM |  | 
COc1cc(N2CCN(C3CCN(c4ccc5c(c4)C(=O)N(C4CCC(=O)NC4=O)C5=O)CC3)CC2)c(-c2cnn(C)c2)cc1Nc1ncc(Cl)c(Nc2ccc(-c3ccccc3)cc2P(C)(C)=O)n1 (stereo not drawn) [Compound 100, 5-(4-(4-(4-((5-chloro-4-((3-(dimethylphosphoryl)-[1,1′-biphenyl]-4-yl)amino)pyrimidin-2-yl)amino)-5-methoxy-2-(1-methyl-1H-pyrazol-4-yl)phenyl)piperazin-1-yl)piperidin-1-yl)-2-(2,6-dioxopiperidin-3-yl)isoindoline-1,3-dione] | < 200 nM | 84 nM |  | < 100 nM | < 100 nM | 48 nM | ≥ 10000 nM | 33300 ng·h/mL | 2.49 h
COc1cc(N2CCN(CC3CCN(c4ccc5c(c4)C(=O)N(C4CCC(=O)NC4=O)C5=O)CC3)CC2)c(-c2cnn(C)c2)cc1Nc1ncc(Cl)c(Nc2ccc(-c3ccccc3)cc2P(C)(C)=O)n1 (stereo not drawn) [Compound 90, 5-(4-((4-(4-((5-chloro-4-((3-(dimethylphosphoryl)-[1,1′-biphenyl]-4-yl)amino)pyrimidin-2-yl)amino)-5-methoxy-2-(1-methyl-1H-pyrazol-4-yl)phenyl)piperazin-1-yl)methyl)piperidin-1-yl)-2-(2,6-dioxopiperidin-3-yl)isoindoline-1,3-dione] | < 200 nM | 68 nM |  | < 100 nM | < 100 nM | 46 nM | ≥ 10000 nM | 35900 ng·h/mL | 4.16 h
COc1cc(N2CCN(CC3CCN(c4ccc5c(c4)C(=O)N(C4CCC(=O)NC4=O)C5=O)C3)CC2)c(-c2cnn(C)c2)cc1Nc1ncc(Cl)c(Nc2ccc(-c3ccccc3)cc2P(C)(C)=O)n1 (stereo not drawn) [Compound 68, 5-(3-((4-(4-((5-chloro-4-((3-(dimethylphosphoryl)-[1,1′-biphenyl]-4-yl)amino)pyrimidin-2-yl)amino)-5-methoxy-2-(1-methyl-1H-pyrazol-4-yl)phenyl)piperazin-1-yl)methyl)pyrrolidin-1-yl)-2-(2,6-dioxopiperidin-3-yl)isoindoline-1,3-dione] | 200 to 500 nM | 280 nM |  | < 100 nM | < 100 nM | 66 nM | ≥ 10000 nM | 53200 ng·h/mL | 3.47 h
